From patent publication US8080579B2, “Compositions and methods for treatment of inflammatory bowel disease” (The Regents of The University of Michigan, priority 2005, dated 2011)

Tests used:
[1] = test system: angiotensin converting enzyme (ACE); assay: IEL ACE mRNA by real time PCR, short bowel syndrome model; type: in vivo, mice; conditions: enalaprilat 0.6 mg/kg/day i.p., 7 days
Protocol: (§1) Short Bowel Syndrome Model: A 70% mid-small bowel resection was performed (i.e. bowel between 3.5 cm distal to the ligament of Treitz and 3.5 cm proximal to the ileocecal valve), followed by an end-to-end jejuno-ileal anastomosis with 7-0 monofilament, absorbable suture. Postoperatively a subcutaneous bolus of 3 ml 0.9% saline solution was given to maintain hydration status.
(§2) Sham operation: Mid-small bowel was transsected and re-anastomosed without bowel-resection.
IEL purification: Isolation of purified IEL from EC was performed by direct magnetic separation. Magnetic beads conjugated with antibody to CD45 (pan-lymphoid marker) were used to segregate IEL from EC (BioMag SelectaPure Anti-Mouse CD 45R Antibody Particles, Polyscience Inc., Warrington, Pa.). Magnetic separation was performed twice to further deplete EC. […]
Real time PCR: Real-time PCR was run to better quantify actual changes in ACE expression. cDNA was also used for real time PCR. The same primers for ACE and β-actin were used as for conventional PCR, SYBR Green I was utilized for fluorescence. […] Ct-values of ACE and β-actin were converted to numbers of cDNA copies, and results expressed as the ratio of ACE over β-actin expression.
(§3) To further understand the relevance of ACE expression on EC apoptosis, ACE-inhibition was used. […] After 1 week, mice were killed, EC apoptotic rates assessed, and IEL mRNA and protein isolated.

TNF-α = assay: IEL TNF-α mRNA by RT-PCR, short bowel syndrome model; type: in vivo; conditions: Sham operated mice, enalaprilat 0.6 mg/kg/day i.p., 7 days
Protocol: as §1, §2
(§4) IEL purification: Isolation of purified IEL from EC was performed by direct magnetic separation. Magnetic beads conjugated with antibody to CD45 (pan-lymphoid marker) were used to segregate IEL from EC (BioMag SelectaPure Anti-Mouse CD 45R Antibody Particles, Polyscience Inc., Warrington, Pa.). […]
Reverse transcriptase polymerase chain reaction (RT-PCR): mRNA (poly-A positive) was reversed transcribed into cDNA following a standard protocol. […] Gel bands were analyzed by DNA sequencing to ensure the correct product. Kodak EDAS System (Rochester, N.Y.) was used for imaging and quantification. Results were expressed as the ratio of the investigated mRNA over the β-actin mRNA expression.
as §3

[2] = test system: angiotensin converting enzyme (ACE); assay: IEL ACE protein by immunoblot, short bowel syndrome model; type: in vivo, mice; conditions: enalaprilat 0.6 mg/kg/day i.p., 7 days
Protocol: as §1, §2, §4
Immunoblot analysis: Protein was extracted from isolated IEL and immunoblots performed by using a Bio-Rad protein assay kit (Bio-Rad Laboratories, Hercules, Calif.), with standard methods. […] Expression for β-actin was determined in the same fashion by re-probing membranes with purified anti-mouse β-actin (1:12000, Sigma-Aldrich, St. Louis, Mo.). Results are expressed as the ratio of ACE over β-actin protein expression.
as §3

[3] = test system: intestinal epithelial cells; assay: Epithelial cell proliferation (BrdU), short bowel syndrome model; type: in vivo, mice; conditions: FIG. 11
Protocol: Epithelial cell proliferation: Mice were given a dose of bromodeoxyuridine (BrdU) 1 to 2 hours prior to sacrifice. Tissues harvested from the intestine were subsequently stained for BrdU as a marker of cellular proliferation.

IEL ACE mRNA (ratio of ACE-cDNA copies over β-actin-cDNA copies) ([1]; SBS mice): 0.63 ± 0.25 | IEL ACE mRNA (ratio of ACE-cDNA copies over β-actin-cDNA copies) ([1]; Sham operated mice): 0.66 ± 0.22 | IEL ACE protein (ratio of ACE over β-actin protein expression) ([2]; SBS mice): 0.14 ± 0.03 | IEL ACE protein (ratio of ACE over β-actin protein expression) ([2]; Sham operated mice): 0.13 ± 0.01
Structure (SMILES): C[C@H](N[C@@H](CCc1ccccc1)C(=O)O)C(=O)N1CCC[C@H]1C(=O)O [ACE-I, enalaprilat]
IEL TNF-α mRNA (ratio over β-actin mRNA) (TNF-α): 0.37 ± 0.07 | Epithelial cell proliferation [3]: increase significantly
